The source of these data is patent US6239122A, “Method of treatment of nausea, vomiting, and other disorders using estrogens” (priority 2000, dated 2001).

Test [1] deals with T1, 5-HT3 receptor (Mus musculus, UniProt P23979).
T1 construct: an immortal cell line that expresses 5-HT3 receptors at a high density; endogenous in cells; host or cells: NCB-20 cells (mouse neuroblastoma × Chinese hamster brain hybrid)
Description: Whole-cell patch clamp, co-application of estrogen with 5-HT (0.5 μM); open conformation, high affinity site. Type of test: cell-based, mouse neuroblastoma×Chinese hamster brain cell line (NCB-20).
Description: I recorded membrane currents carried by 5-HT3 receptors under voltage-clamp from single cells using the whole-cell configuration of the patch clamp technique (Hamill, O. P., Marty, A., Neher, E., Sakmann, B. & Sakmann, F. J., 1981, Pfluegers Arch. 391:85-100). Recordings were performed at a holding potential of -60 mV. Ligands were applied to the cells using a gravity-feed rapid perfusion system.
When the agonist is bound to the receptor and the receptor is conducting current, the receptor is in an open conformation. […] Concentration-effect data from 21 cells were fitted with the Hill (logistic) equation.

Test [2] concerns the target T1, 5-HT3 receptor. Description: Whole-cell patch clamp, estrogen applied before 5-HT (10 μM); closed conformation, low affinity site. Type of test: cell-based, mouse neuroblastoma×Chinese hamster brain cell line (NCB-20).
Description: I used NCB-20 cells (mouse neuroblastoma×Chinese hamster brain cell line), an immortal cell line that expresses 5-HT3 receptors at a high density. Cells were grown in Dulbecco's modified Eagles medium containing 10% fetal bovine serum, 100 U/ml penicillin, 100 μg/ml streptomycin and 2 mM glutamine. Cells were incubated in 35 mm plates at 37 degrees C in a humidified 7% carbon dioxide atmosphere. […] I recorded membrane currents carried by 5-HT3 receptors under voltage-clamp from single cells using the whole-cell configuration of the patch clamp technique (Hamill, O. P., Marty, A., Neher, E., Sakmann, B. & Sakmann, F. J., 1981, Pfluegers Arch. 391:85-100). Recordings were performed at a holding potential of -60 mV. Ligands were applied to the cells using a gravity-feed rapid perfusion system.
This is also called the closed conformation of the receptor.

T1 sequence (P23979 24-489): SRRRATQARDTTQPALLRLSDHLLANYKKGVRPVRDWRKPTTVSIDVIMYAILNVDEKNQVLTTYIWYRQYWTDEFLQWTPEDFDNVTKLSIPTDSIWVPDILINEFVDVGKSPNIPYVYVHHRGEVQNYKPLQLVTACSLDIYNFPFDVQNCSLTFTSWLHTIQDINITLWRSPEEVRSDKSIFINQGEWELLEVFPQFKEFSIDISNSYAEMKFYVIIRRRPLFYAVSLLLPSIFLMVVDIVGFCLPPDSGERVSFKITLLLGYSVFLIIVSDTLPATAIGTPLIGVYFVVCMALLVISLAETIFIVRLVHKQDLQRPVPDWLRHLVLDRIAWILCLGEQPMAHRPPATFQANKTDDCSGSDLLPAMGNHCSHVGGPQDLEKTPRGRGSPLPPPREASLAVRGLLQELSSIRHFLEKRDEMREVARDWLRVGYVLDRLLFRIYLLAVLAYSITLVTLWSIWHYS

What is called IC50 is the midpoint of a concentration-inhibition curve. Read a high IC50 as weaker potency. Turning to `C[C@]12CC[C@@H]3c4ccc(O)cc4CC[C@H]3[C@@H]1C[C@@H](O)[C@@H]2O` [estriol], the IC50 on 5-HT3 receptor [1] was 22 ± 8 µM.

With `C[C@]12CC[C@@H]3c4ccc(O)cc4CC[C@H]3[C@@H]1CCC2=O` [estrone, 3-hydroxyestra-1,3,5(10)-trien-17-one], the IC50 against 5-HT3 receptor [2] was 0.3 ± 0.02 µM; on 5-HT3 receptor [1] it was 0.0015 µM.
